Test results: PubChem BioAssay (NCI)
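All cell lines were grown in 96-well plates and treated with compound for 48 hours. GI50: concentration for 50% inhibition of growth. The concentration for full growth arrest is given as TGI.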

Tests used:
Assay in all cases: NCI-60 cell line screen, 48 h
[1] = tested on: SK-MEL-5 melanoma
[2] = tested on: OVCAR-5 ovarian
[3] = tested on: ACHN renal
[4] = tested on: TK-10 renal
[5] = tested on: CCRF-CEM leukemia
[6] = tested on: PC-3 prostate
[7] = tested on: MDA-MB-435
[8] = tested on: MCF7 breast
[9] = tested on: BT-549 breast
[10] = tested on: MDA-MB-231 breast

SMILES	TGI [1] [µM]	TGI [2] [µM]	TGI [3] [µM]	TGI [4] [µM]	TGI [5] [µM]	GI50 [6] [µM]	TGI [6] [µM]	GI50 [7] [µM]	TGI [7] [µM]	GI50 [1] [µM]	GI50 [2] [µM]	GI50 [3] [µM]	GI50 [8] [µM]	TGI [8] [µM]	GI50 [4] [µM]	GI50 [9] [µM]	TGI [9] [µM]	GI50 [10] [µM]	TGI [10] [µM]
COc1cccc(NC(=O)CC(=O)N2N=C(N3c4ccccc4Sc4ccccc43)CC2c2ccccc2)c1 (stereo unspecified)	> 100	> 100	> 100	> 100	–	–	–	–	–	–	–	–	–	–	–	–	–	–	–
CCCN(CCC)C(=O)C(=O)c1c(N)[nH]n(-c2ccccc2)c1=O	> 100	> 100	> 100	> 100	> 100	–	–	–	–	–	–	–	–	–	–	–	–	–	–
CN(C)C(=O)c1cnc2oc3ccc(O)cc3c2c1-c1ccccc1	> 25	> 25	> 25	> 25	–	16.6	> 25	> 25	> 25	6.75	6.94	> 25	> 25	> 25	> 25	6.2	> 25	–	–
COc1cnc2c(c1)C(=O)c1c-2n(CCCNC2=NCCS2)c(=O)c2cc(Cl)ccc12	2.12	3.45	1.49	3.09	–	–	–	1.43	2.76	0.812	1.82	0.0487	0.0366	1.32	1.66	1.05	2.56	1.52	3.07
CCOC(=O)/C(O)=C(/C(=O)OC)c1ccc(Cl)cc1	> 100	> 100	> 100	> 100	> 100	–	–	–	–	–	–	–	–	–	–	–	–	–	–
Cc1nn(-c2ccc(Cl)cc2)c2nc3c(nc12)C(=O)C(=O)c1ccccc1-3	24.1	> 100	> 100	–	–	2.31	> 100	6.31	> 100	4.94	12	19.5	27.9	> 100	–	1.57	4.76	4.31	66.3
COc1cc([N+](=O)[O-])c(OC)cc1-c1nc2sccn2c1/C=N/N=C(N)N	> 100	> 100	28.8	50.6	–	24.2	> 100	15.5	52.3	33.7	53.8	12.8	22	> 100	18	18.6	42.2	24.2	69.5
C[C@]12CCC(=O)CC1CCCC2=O (stereo partly specified)	> 100	–	–	> 100	> 100	–	–	–	–	–	–	–	–	–	–	–	–	–	–
COC(=O)c1cc2ccccc2c2c3c(ccc12)OCO3	> 1000	> 1000	> 1000	325	–	67.4	> 1000	531	> 1000	45.2	223	75.3	306	> 1000	43.8	47.1	482	59.7	> 1000
O=C(O)c1nc(-c2ccc(Cl)c(Cl)c2)nc2ccc(Cl)cc12	> 100	> 100	> 100	> 100	> 10	–	–	–	–	–	–	–	–	–	–	–	–	–	–
